Source: the kinase profiling compilation of Christmann-Franck et al. (2016)

Key:
Assay in all cases: KINOMEscan competition binding
Conditions in all cases: compound 2.0 µM
[1] = test system: EIF2AK4 KD2 (human), Q9P2K8 [S808G]
MST1R (human) = MST1R (human) (UniProt Q04912)
DCLK3 (human) = DCLK3 (human) (UniProt Q9C098)
LIMK1 (human) = LIMK1 (human) (UniProt P53667)
STK17B (human) = STK17B (human) (UniProt O94768)
CSNK1A1L (human) = CSNK1A1L (human) (UniProt Q8N752)
AKT1 (human) = AKT1 (human) (UniProt P31749)
MAP3K7 (human) = MAP3K7 (human) (UniProt O43318)
Sequence of MAP3K7 (human) (O43318 whole entry, looked up): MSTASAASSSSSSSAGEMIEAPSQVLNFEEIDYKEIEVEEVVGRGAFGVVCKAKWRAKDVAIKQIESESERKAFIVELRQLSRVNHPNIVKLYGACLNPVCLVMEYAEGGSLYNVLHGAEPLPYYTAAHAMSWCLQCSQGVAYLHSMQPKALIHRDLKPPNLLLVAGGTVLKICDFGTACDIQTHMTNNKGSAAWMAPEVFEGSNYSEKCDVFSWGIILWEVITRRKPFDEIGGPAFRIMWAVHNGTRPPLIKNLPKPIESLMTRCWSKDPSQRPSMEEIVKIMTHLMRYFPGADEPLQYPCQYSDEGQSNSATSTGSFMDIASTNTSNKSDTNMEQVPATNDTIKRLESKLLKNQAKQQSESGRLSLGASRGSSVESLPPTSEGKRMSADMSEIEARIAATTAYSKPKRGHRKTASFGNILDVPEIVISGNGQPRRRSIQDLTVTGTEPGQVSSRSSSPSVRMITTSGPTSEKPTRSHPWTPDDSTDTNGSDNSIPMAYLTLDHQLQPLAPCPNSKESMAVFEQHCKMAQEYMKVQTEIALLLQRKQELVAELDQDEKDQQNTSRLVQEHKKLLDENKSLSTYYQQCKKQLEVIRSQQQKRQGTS

AKT3 (human) = AKT3 (human) (UniProt Q9Y243)
Sequence of AKT3 (human) (Q9Y243 whole entry, looked up): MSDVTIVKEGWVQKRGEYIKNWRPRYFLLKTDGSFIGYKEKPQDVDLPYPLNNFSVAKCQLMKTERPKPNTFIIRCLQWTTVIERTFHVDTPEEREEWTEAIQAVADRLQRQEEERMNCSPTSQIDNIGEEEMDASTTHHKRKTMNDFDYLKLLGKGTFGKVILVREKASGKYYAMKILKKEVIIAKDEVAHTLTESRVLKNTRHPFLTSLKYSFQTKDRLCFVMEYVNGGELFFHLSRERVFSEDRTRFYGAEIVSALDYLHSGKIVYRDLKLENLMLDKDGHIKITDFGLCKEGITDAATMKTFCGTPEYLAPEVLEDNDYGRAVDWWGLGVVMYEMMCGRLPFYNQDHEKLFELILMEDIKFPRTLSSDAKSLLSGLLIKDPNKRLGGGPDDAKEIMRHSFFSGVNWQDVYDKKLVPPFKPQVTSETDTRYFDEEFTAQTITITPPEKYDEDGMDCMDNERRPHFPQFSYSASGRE

[2] = test system: EGFR (human), P00533 [752-759 del]
MAPK7 (human) = MAPK7 (human) (UniProt Q13164)
Sequence of MAPK7 (human) (Q13164 whole entry, looked up): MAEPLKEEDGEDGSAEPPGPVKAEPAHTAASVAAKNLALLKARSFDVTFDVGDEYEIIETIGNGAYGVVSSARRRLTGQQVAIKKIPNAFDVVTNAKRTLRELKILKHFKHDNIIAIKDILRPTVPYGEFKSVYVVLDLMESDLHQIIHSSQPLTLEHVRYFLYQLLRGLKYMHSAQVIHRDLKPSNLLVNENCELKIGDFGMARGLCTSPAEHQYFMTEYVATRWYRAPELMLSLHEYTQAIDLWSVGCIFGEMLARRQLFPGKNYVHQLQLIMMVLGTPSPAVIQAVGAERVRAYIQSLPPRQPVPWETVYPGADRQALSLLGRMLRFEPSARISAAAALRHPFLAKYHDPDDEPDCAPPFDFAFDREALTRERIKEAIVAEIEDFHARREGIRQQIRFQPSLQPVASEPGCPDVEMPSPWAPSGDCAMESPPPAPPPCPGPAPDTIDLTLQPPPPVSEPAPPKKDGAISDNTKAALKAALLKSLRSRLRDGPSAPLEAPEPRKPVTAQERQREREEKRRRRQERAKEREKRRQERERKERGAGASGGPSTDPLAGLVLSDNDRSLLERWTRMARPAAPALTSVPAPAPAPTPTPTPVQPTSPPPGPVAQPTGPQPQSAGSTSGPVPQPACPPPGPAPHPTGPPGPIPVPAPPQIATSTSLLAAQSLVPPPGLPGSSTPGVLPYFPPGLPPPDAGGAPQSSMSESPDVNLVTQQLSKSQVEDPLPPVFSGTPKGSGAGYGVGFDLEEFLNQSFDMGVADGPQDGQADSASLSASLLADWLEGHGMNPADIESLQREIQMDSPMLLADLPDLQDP

[3] = test system: KIT (human), P10721 [D816H]
EPHA7 (human) = EPHA7 (human) (UniProt Q15375)
[4] = test system: EGFR (human), P00533 [G719S]
NLK (human) = NLK (human) (UniProt Q9UBE8)
PIK3CD (human) = PIK3CD (human) (UniProt O00329)
MAPK10 (human) = MAPK10 (human) (UniProt P53779)
Sequence of MAPK10 (human) (P53779 whole entry, looked up): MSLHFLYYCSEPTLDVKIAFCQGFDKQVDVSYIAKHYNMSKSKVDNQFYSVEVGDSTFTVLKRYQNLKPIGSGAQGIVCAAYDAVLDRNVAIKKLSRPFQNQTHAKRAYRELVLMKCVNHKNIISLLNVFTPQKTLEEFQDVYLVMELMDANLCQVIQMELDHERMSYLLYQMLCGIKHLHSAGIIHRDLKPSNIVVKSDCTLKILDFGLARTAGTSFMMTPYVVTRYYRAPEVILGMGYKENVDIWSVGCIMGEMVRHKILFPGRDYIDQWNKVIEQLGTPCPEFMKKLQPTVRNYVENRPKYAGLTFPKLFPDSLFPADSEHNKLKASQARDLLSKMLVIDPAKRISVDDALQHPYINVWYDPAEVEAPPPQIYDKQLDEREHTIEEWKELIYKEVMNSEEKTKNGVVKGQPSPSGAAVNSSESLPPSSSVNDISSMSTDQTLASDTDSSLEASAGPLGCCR

NTRK1 (human) = NTRK1 (human) (UniProt P04629)
RPS6KA5 KD1 (human) = RPS6KA5 KD1 (human) (UniProt O75582)
HIPK1 (human) = HIPK1 (human) (UniProt Q86Z02)
MAPKAPK5 (human) = MAPKAPK5 (human) (UniProt Q8IW41)
CDK11B (human) = CDK11B (human) (UniProt P21127)
RPS6KA3 KD1 (human) = RPS6KA3 KD1 (human) (UniProt P51812)
RPS6KA1 KD1 (human) = RPS6KA1 KD1 (human) (UniProt Q15418)
EPHB1 (human) = EPHB1 (human) (UniProt P54762)
Sequence of EPHB1 (human) (P54762 whole entry, looked up): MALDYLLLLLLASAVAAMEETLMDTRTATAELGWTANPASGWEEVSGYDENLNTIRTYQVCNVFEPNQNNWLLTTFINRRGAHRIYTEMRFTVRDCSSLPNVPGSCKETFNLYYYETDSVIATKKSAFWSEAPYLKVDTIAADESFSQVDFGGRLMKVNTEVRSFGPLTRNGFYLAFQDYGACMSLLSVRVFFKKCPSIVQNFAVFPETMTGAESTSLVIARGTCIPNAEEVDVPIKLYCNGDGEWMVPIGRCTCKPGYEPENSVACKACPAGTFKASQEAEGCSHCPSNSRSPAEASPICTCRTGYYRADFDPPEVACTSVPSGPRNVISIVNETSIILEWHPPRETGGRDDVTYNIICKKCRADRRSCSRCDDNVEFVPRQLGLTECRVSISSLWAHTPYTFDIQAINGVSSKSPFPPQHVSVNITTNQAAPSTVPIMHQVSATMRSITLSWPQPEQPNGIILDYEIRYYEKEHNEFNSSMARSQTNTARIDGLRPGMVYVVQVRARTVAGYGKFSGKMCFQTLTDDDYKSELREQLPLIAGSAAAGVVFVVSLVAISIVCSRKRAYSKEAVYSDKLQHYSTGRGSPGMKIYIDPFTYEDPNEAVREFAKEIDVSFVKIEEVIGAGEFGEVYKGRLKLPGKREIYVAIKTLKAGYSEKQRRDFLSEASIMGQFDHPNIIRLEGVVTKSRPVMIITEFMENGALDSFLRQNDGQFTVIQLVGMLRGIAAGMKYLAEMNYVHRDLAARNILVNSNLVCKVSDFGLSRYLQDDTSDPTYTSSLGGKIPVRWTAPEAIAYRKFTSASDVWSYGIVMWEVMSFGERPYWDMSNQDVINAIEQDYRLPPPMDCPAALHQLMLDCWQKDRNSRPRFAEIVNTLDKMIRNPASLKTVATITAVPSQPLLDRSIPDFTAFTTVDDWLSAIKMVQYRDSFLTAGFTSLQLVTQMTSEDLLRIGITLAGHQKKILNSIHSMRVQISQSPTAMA

DAPK3 (human) = DAPK3 (human) (UniProt O43293)
CAMKK1 (human) = CAMKK1 (human) (UniProt Q8N5S9)
CDK4 CCND1 (human) = CDK4 CCND1 (human) (UniProt P11802+P24385)
ABL2 (human) = ABL2 (human) (UniProt P42684)
[5] = test system: KIT (human), P10721 [A829P]
MAP4K4 (human) = MAP4K4 (human) (UniProt O95819)
ULK2 (human) = ULK2 (human) (UniProt Q8IYT8)
CLK3 (human) = CLK3 (human) (UniProt P49761)
PLK1 (human) = PLK1 (human) (UniProt P53350)
[6] = test system: PIK3CA (human), P42336 [H1047Y]
MAP2K7 (human) = MAP2K7 (human) (UniProt O14733)
Sequence of MAP2K7 (human) (O14733 whole entry, looked up): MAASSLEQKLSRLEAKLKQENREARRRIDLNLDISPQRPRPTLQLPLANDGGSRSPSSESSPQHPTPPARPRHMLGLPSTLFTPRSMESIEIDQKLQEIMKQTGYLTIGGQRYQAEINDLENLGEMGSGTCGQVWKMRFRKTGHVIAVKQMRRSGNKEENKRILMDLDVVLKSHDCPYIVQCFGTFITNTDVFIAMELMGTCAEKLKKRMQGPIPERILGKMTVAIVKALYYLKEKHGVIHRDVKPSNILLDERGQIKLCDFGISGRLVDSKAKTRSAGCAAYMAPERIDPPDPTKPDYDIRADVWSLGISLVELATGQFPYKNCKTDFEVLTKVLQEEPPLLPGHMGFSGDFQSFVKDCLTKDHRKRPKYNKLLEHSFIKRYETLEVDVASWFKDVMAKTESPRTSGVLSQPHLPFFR

TNIK (human) = TNIK (human) (UniProt Q9UKE5)
RPS6KB1 (human) = RPS6KB1 (human) (UniProt P23443)
Sequence of RPS6KB1 (human) (P23443 whole entry, looked up): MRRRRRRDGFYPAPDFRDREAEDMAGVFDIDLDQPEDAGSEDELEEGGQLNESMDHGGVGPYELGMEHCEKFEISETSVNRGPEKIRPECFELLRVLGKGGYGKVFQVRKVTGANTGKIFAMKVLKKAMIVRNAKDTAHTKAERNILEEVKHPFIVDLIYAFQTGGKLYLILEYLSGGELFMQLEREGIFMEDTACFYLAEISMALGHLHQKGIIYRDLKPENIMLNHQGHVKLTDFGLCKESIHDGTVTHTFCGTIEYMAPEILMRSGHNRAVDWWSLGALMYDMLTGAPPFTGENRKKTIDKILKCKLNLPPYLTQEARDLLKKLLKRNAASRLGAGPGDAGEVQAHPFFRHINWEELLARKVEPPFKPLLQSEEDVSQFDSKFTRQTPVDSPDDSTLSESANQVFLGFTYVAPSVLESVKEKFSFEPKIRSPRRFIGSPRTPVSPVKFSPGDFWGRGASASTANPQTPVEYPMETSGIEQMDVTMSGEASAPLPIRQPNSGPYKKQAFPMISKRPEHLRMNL

PRPF4B (human) = PRPF4B (human) (UniProt Q13523)
CSNK1G1 (human) = CSNK1G1 (human) (UniProt Q9HCP0)
CPK1 (P.falciparum) = test system: CPK1 (P.falciparum)
PIM3 (human) = PIM3 (human) (UniProt Q86V86)

Sequence of STK17B (human) (O94768 whole entry, looked up): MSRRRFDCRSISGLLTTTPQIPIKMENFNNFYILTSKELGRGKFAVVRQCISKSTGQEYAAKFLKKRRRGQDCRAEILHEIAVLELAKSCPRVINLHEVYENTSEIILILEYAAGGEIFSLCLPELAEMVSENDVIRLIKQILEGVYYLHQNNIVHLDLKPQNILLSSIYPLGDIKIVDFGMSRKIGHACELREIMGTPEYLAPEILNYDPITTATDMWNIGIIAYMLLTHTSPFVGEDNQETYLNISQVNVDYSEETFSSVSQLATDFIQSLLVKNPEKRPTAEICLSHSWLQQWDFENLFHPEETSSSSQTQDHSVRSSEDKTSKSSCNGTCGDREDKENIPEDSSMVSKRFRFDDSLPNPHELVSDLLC

Q: For `N#Cc1ccc2ncnc(NCCc3ccc4ccccc4c3)c2c1`, which kinase still bound, per cent of control [1] is on record?
A: The kinase still bound, per cent of control was 80%.

Q: What about the kinase still bound, per cent of control (MST1R (human)) of the same compound?
A: Its kinase still bound, per cent of control is 100%.

Q: What about the kinase still bound, per cent of control (DCLK3 (human)) of the same compound?
A: Its kinase still bound, per cent of control is 99%.

Q: And the kinase still bound, per cent of control (LIMK1 (human))?
A: Its kinase still bound, per cent of control is 100%.

Q: What about the kinase still bound, per cent of control (STK17B (human)) of the same compound?
A: Its kinase still bound, per cent of control is 100%.

Q: What about the kinase still bound, per cent of control (CSNK1A1L (human)) of the same compound?
A: The kinase still bound, per cent of control was 89%.

Q: And the kinase still bound, per cent of control (AKT1 (human))?
A: Its kinase still bound, per cent of control is 81%.

Q: What about the kinase still bound, per cent of control (MAP3K7 (human)) of the same compound?
A: The kinase still bound, per cent of control was 78%.

Q: And the kinase still bound, per cent of control (AKT3 (human))?
A: Its kinase still bound, per cent of control is 98%.

Q: What about the kinase still bound, per cent of control [2] of the same compound?
A: The kinase still bound, per cent of control was 80%.

Q: And the kinase still bound, per cent of control (MAPK7 (human))?
A: Its kinase still bound, per cent of control is 93%.

Q: What about the kinase still bound, per cent of control [3] of the same compound?
A: Its kinase still bound, per cent of control is 100%.

Q: And the kinase still bound, per cent of control (EPHA7 (human))?
A: The kinase still bound, per cent of control was 93%.

Q: What about the kinase still bound, per cent of control [4] of the same compound?
A: Its kinase still bound, per cent of control is 86%.

Q: What about the kinase still bound, per cent of control (NLK (human)) of the same compound?
A: Its kinase still bound, per cent of control is 85%.

Q: And the kinase still bound, per cent of control (PIK3CD (human))?
A: Its kinase still bound, per cent of control is 100%.

Q: What about the kinase still bound, per cent of control (MAPK10 (human)) of the same compound?
A: The kinase still bound, per cent of control was 100%.

Q: And the kinase still bound, per cent of control (NTRK1 (human))?
A: Its kinase still bound, per cent of control is 100%.

Q: And the kinase still bound, per cent of control (RPS6KA5 KD1 (human))?
A: The kinase still bound, per cent of control was 100%.

Q: And the kinase still bound, per cent of control (HIPK1 (human))?
A: The kinase still bound, per cent of control was 100%.

Q: What about the kinase still bound, per cent of control (MAPKAPK5 (human)) of the same compound?
A: The kinase still bound, per cent of control was 79%.

Q: What about the kinase still bound, per cent of control (CDK11B (human)) of the same compound?
A: Its kinase still bound, per cent of control is 99%.

Q: And the kinase still bound, per cent of control (RPS6KA3 KD1 (human))?
A: Its kinase still bound, per cent of control is 97%.

Q: And the kinase still bound, per cent of control (RPS6KA1 KD1 (human))?
A: Its kinase still bound, per cent of control is 81%.

Q: And the kinase still bound, per cent of control (EPHB1 (human))?
A: Its kinase still bound, per cent of control is 87%.

Q: What about the kinase still bound, per cent of control (DAPK3 (human)) of the same compound?
A: The kinase still bound, per cent of control was 74%.

Q: What about the kinase still bound, per cent of control (CAMKK1 (human)) of the same compound?
A: Its kinase still bound, per cent of control is 97%.

Q: And the kinase still bound, per cent of control (CDK4 CCND1 (human))?
A: Its kinase still bound, per cent of control is 100%.

Q: And the kinase still bound, per cent of control (ABL2 (human))?
A: Its kinase still bound, per cent of control is 99%.

Q: And the kinase still bound, per cent of control [5]?
A: Its kinase still bound, per cent of control is 89%.

Q: What about the kinase still bound, per cent of control (MAP4K4 (human)) of the same compound?
A: Its kinase still bound, per cent of control is 97%.

Q: What about the kinase still bound, per cent of control (ULK2 (human)) of the same compound?
A: The kinase still bound, per cent of control was 100%.

Q: What about the kinase still bound, per cent of control (CLK3 (human)) of the same compound?
A: The kinase still bound, per cent of control was 93%.

Q: What about the kinase still bound, per cent of control (PLK1 (human)) of the same compound?
A: The kinase still bound, per cent of control was 88%.

Q: What about the kinase still bound, per cent of control [6] of the same compound?
A: The kinase still bound, per cent of control was 78%.

Q: What about the kinase still bound, per cent of control (MAP2K7 (human)) of the same compound?
A: Its kinase still bound, per cent of control is 94%.

Q: What about the kinase still bound, per cent of control (TNIK (human)) of the same compound?
A: The kinase still bound, per cent of control was 97%.

Q: What about the kinase still bound, per cent of control (RPS6KB1 (human)) of the same compound?
A: The kinase still bound, per cent of control was 97%.

Q: And the kinase still bound, per cent of control (PRPF4B (human))?
A: The kinase still bound, per cent of control was 100%.

Q: And the kinase still bound, per cent of control (CSNK1G1 (human))?
A: Its kinase still bound, per cent of control is 83%.

Q: What about the kinase still bound, per cent of control (CPK1 (P.falciparum)) of the same compound?
A: The kinase still bound, per cent of control was 95%.

Q: And the kinase still bound, per cent of control (PIM3 (human))?
A: The kinase still bound, per cent of control was 100%.
